Laboratory results taken from the supplement of paper PMC10307832.

Columns and labels:
Test in all cases: relative viability (nuclei count vs DMSO), 5 days (fraction); higher = more cells survive
SGI-1776 + Vorinostat = compound: CN1CCC(CNc2ccc3ncc(-c4cccc(OC(F)(F)F)c4)n3n2)CC1 [SGI-1776] + O=C(CCCCCCC(=O)Nc1ccccc1)NO [Vorinostat] (partner 1 µM)
Outline: (§1)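 For relative viability, nuclei counts in treated wells were divided by those in vehicle wells. Lung cancer cell lines had been pin-tool dosed in 1536-well plates the day after seeding and cultured for 5 days, then fixed and stained in one step (final 0.05% Triton X-100, 1% formaldehyde, 1 ug/ml Hoechst) and imaged at 4×. Doses were one drug alone or a fixed anchor-drug dose plus five library-drug doses (not always all listed) in √10 steps, and values are duplicate-plate medians.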

SGI-1776 + Crizotinib = compound: CN1CCC(CNc2ccc3ncc(-c4cccc(OC(F)(F)F)c4)n3n2)CC1 [SGI-1776] + C[C@@H](Oc1cc(-c2cnn(C3CCNCC3)c2)cnc1N)c1c(Cl)ccc(F)c1Cl [Crizotinib] (partner 1 µM)
Outline: as §1

SGI-1776 + Decitabine = compound: CN1CCC(CNc2ccc3ncc(-c4cccc(OC(F)(F)F)c4)n3n2)CC1 [SGI-1776] + Nc1ncn([C@H]2C[C@H](O)[C@@H](CO)O2)c(=O)n1 [Decitabine] (partner 2 µM)
Outline: as §1

Entinostat + Vorinostat = compound: Nc1ccccc1NC(=O)c1ccc(CNC(=O)OCc2cccnc2)cc1 [Entinostat] + O=C(CCCCCCC(=O)Nc1ccccc1)NO [Vorinostat] (partner 1 µM)
Outline: as §1

## NCI-H838
SGI-1776 + Vorinostat; first compound 0.08 µM
  relative viability: 0.794
SGI-1776 + Vorinostat; first compound 0.8 µM
  relative viability: 0.697
SGI-1776 + Vorinostat; first compound 2.53 µM
  relative viability: 0.676
SGI-1776 + Vorinostat; first compound 8 µM
  relative viability: 0.522
SGI-1776 + Crizotinib; first compound 0.08 µM
  relative viability: 0.885
SGI-1776 + Crizotinib; first compound 0.8 µM
  relative viability: 0.854
SGI-1776 + Crizotinib; first compound 2.53 µM
  relative viability: 0.689
SGI-1776 + Crizotinib; first compound 8 µM
  relative viability: 0.319
SGI-1776 + Decitabine; first compound 0.08 µM
  relative viability: 0.46
SGI-1776 + Decitabine; first compound 0.8 µM
  relative viability: 0.45
SGI-1776 + Decitabine; first compound 2.53 µM
  relative viability: 0.435
SGI-1776 + Decitabine; first compound 8 µM
  relative viability: 0.437
Entinostat + Vorinostat; first compound 0.02 µM
  relative viability: 0.784
Entinostat + Vorinostat; first compound 0.06325 µM
  relative viability: 0.688
Entinostat + Vorinostat; first compound 0.2 µM
  relative viability: 0.667
Entinostat + Vorinostat; first compound 0.6325 µM
  relative viability: 0.458
Entinostat + Vorinostat; first compound 2 µM
  relative viability: 0.257

## LOU-NH91
SGI-1776 + Vorinostat; first compound 0.08 µM
  relative viability: 0.976
SGI-1776 + Vorinostat; first compound 0.8 µM
  relative viability: 1
SGI-1776 + Vorinostat; first compound 2.53 µM
  relative viability: 0.845
SGI-1776 + Vorinostat; first compound 8 µM
  relative viability: 0.644
SGI-1776 + Crizotinib; first compound 0.08 µM
  relative viability: 0.776
SGI-1776 + Crizotinib; first compound 0.8 µM
  relative viability: 0.747
SGI-1776 + Crizotinib; first compound 2.53 µM
  relative viability: 0.693
SGI-1776 + Crizotinib; first compound 8 µM
  relative viability: 0.593
SGI-1776 + Decitabine; first compound 0.08 µM
  relative viability: 0.853
SGI-1776 + Decitabine; first compound 0.8 µM
  relative viability: 0.811
SGI-1776 + Decitabine; first compound 2.53 µM
  relative viability: 0.799
SGI-1776 + Decitabine; first compound 8 µM
  relative viability: 0.705
Entinostat + Vorinostat; first compound 0.02 µM
  relative viability: 0.971
Entinostat + Vorinostat; first compound 0.06325 µM
  relative viability: 0.909
Entinostat + Vorinostat; first compound 0.2 µM
  relative viability: 0.872
Entinostat + Vorinostat; first compound 0.6325 µM
  relative viability: 0.718
Entinostat + Vorinostat; first compound 2 µM
  relative viability: 0.56

## BEN
SGI-1776 + Vorinostat; first compound 0.08 µM
  relative viability: 0.643
SGI-1776 + Vorinostat; first compound 0.8 µM
  relative viability: 0.618
SGI-1776 + Vorinostat; first compound 2.53 µM
  relative viability: 0.584
SGI-1776 + Vorinostat; first compound 8 µM
  relative viability: 0.543
SGI-1776 + Crizotinib; first compound 0.08 µM
  relative viability: 0.799
SGI-1776 + Crizotinib; first compound 0.8 µM
  relative viability: 0.851
SGI-1776 + Crizotinib; first compound 2.53 µM
  relative viability: 0.844
SGI-1776 + Crizotinib; first compound 8 µM
  relative viability: 0.628
SGI-1776 + Decitabine; first compound 0.08 µM
  relative viability: 0.733
SGI-1776 + Decitabine; first compound 0.8 µM
  relative viability: 0.711
SGI-1776 + Decitabine; first compound 2.53 µM
  relative viability: 0.635
SGI-1776 + Decitabine; first compound 8 µM
  relative viability: 0.554
Entinostat + Vorinostat; first compound 0.02 µM
  relative viability: 0.632
Entinostat + Vorinostat; first compound 0.06325 µM
  relative viability: 0.571
Entinostat + Vorinostat; first compound 0.2 µM
  relative viability: 0.553
Entinostat + Vorinostat; first compound 0.6325 µM
  relative viability: 0.459
Entinostat + Vorinostat; first compound 2 µM
  relative viability: 0.384

## NCI-H2085
SGI-1776 + Vorinostat; first compound 0.08 µM
  relative viability: 0.841
SGI-1776 + Vorinostat; first compound 0.8 µM
  relative viability: 0.865
SGI-1776 + Vorinostat; first compound 2.53 µM
  relative viability: 0.763
SGI-1776 + Vorinostat; first compound 8 µM
  relative viability: 0.753
SGI-1776 + Crizotinib; first compound 0.08 µM
  relative viability: 0.858
SGI-1776 + Crizotinib; first compound 0.8 µM
  relative viability: 0.767
SGI-1776 + Crizotinib; first compound 2.53 µM
  relative viability: 0.853
SGI-1776 + Crizotinib; first compound 8 µM
  relative viability: 0.71
SGI-1776 + Decitabine; first compound 0.08 µM
  relative viability: 0.549
SGI-1776 + Decitabine; first compound 0.8 µM
  relative viability: 0.505
SGI-1776 + Decitabine; first compound 2.53 µM
  relative viability: 0.606
SGI-1776 + Decitabine; first compound 8 µM
  relative viability: 0.556
Entinostat + Vorinostat; first compound 0.02 µM
  relative viability: 0.731
Entinostat + Vorinostat; first compound 0.06325 µM
  relative viability: 0.763
Entinostat + Vorinostat; first compound 0.2 µM
  relative viability: 0.788
Entinostat + Vorinostat; first compound 0.6325 µM
  relative viability: 0.608
Entinostat + Vorinostat; first compound 2 µM
  relative viability: 0.419

## NCI-H1792
SGI-1776 + Crizotinib; first compound 0.08 µM
  relative viability: 1.04
SGI-1776 + Crizotinib; first compound 0.8 µM
  relative viability: 1.05
SGI-1776 + Crizotinib; first compound 2.53 µM
  relative viability: 0.965
SGI-1776 + Crizotinib; first compound 8 µM
  relative viability: 1.09
SGI-1776 + Decitabine; first compound 0.08 µM
  relative viability: 0.651
SGI-1776 + Decitabine; first compound 0.8 µM
  relative viability: 0.508
SGI-1776 + Decitabine; first compound 2.53 µM
  relative viability: 0.658
SGI-1776 + Decitabine; first compound 8 µM
  relative viability: 0.527

## NCI-H1563
SGI-1776 + Crizotinib; first compound 0.08 µM
  relative viability: 0.833
SGI-1776 + Crizotinib; first compound 0.8 µM
  relative viability: 0.888
SGI-1776 + Crizotinib; first compound 2.53 µM
  relative viability: 0.906
SGI-1776 + Crizotinib; first compound 8 µM
  relative viability: 0.785

## NCI-H522
SGI-1776 + Vorinostat; first compound 0.08 µM
  relative viability: 0.92
SGI-1776 + Vorinostat; first compound 0.8 µM
  relative viability: 0.896
SGI-1776 + Vorinostat; first compound 2.53 µM
  relative viability: 0.903
SGI-1776 + Vorinostat; first compound 8 µM
  relative viability: 0.858
SGI-1776 + Decitabine; first compound 0.08 µM
  relative viability: 0.632
SGI-1776 + Decitabine; first compound 0.8 µM
  relative viability: 0.595
SGI-1776 + Decitabine; first compound 2.53 µM
  relative viability: 0.728
SGI-1776 + Decitabine; first compound 8 µM
  relative viability: 0.562
Entinostat + Vorinostat; first compound 0.02 µM
  relative viability: 0.794
Entinostat + Vorinostat; first compound 0.06325 µM
  relative viability: 0.944
Entinostat + Vorinostat; first compound 0.2 µM
  relative viability: 0.863
Entinostat + Vorinostat; first compound 0.6325 µM
  relative viability: 0.741
Entinostat + Vorinostat; first compound 2 µM
  relative viability: 0.428

## IA-LM
SGI-1776 + Vorinostat; first compound 0.08 µM
  relative viability: 0.956
SGI-1776 + Vorinostat; first compound 0.8 µM
  relative viability: 0.914
SGI-1776 + Vorinostat; first compound 2.53 µM
  relative viability: 0.922
SGI-1776 + Vorinostat; first compound 8 µM
  relative viability: 0.926
SGI-1776 + Crizotinib; first compound 0.08 µM
  relative viability: 0.514
SGI-1776 + Crizotinib; first compound 0.8 µM
  relative viability: 0.989
SGI-1776 + Crizotinib; first compound 8 µM
  relative viability: 0.69
Entinostat + Vorinostat; first compound 0.02 µM
  relative viability: 0.972
Entinostat + Vorinostat; first compound 0.06325 µM
  relative viability: 0.997
Entinostat + Vorinostat; first compound 0.2 µM
  relative viability: 1.13
Entinostat + Vorinostat; first compound 0.6325 µM
  relative viability: 0.863
Entinostat + Vorinostat; first compound 2 µM
  relative viability: 0.682

## NCI-H1793
SGI-1776 + Vorinostat; first compound 0.08 µM
  relative viability: 0.843
SGI-1776 + Vorinostat; first compound 0.8 µM
  relative viability: 1.15
SGI-1776 + Vorinostat; first compound 2.53 µM
  relative viability: 0.768
SGI-1776 + Vorinostat; first compound 8 µM
  relative viability: 0.638
SGI-1776 + Decitabine; first compound 0.08 µM
  relative viability: 0.49
SGI-1776 + Decitabine; first compound 0.8 µM
  relative viability: 0.512
SGI-1776 + Decitabine; first compound 2.53 µM
  relative viability: 0.516
SGI-1776 + Decitabine; first compound 8 µM
  relative viability: 0.509
Entinostat + Vorinostat; first compound 0.02 µM
  relative viability: 0.78
Entinostat + Vorinostat; first compound 0.06325 µM
  relative viability: 0.854
Entinostat + Vorinostat; first compound 0.2 µM
  relative viability: 0.801
Entinostat + Vorinostat; first compound 0.6325 µM
  relative viability: 0.439
Entinostat + Vorinostat; first compound 2 µM
  relative viability: 0.29

## SW 900
SGI-1776 + Vorinostat; first compound 0.08 µM
  relative viability: 0.506
SGI-1776 + Vorinostat; first compound 0.8 µM
  relative viability: 0.752
SGI-1776 + Vorinostat; first compound 2.53 µM
  relative viability: 0.651
SGI-1776 + Vorinostat; first compound 8 µM
  relative viability: 0.361
SGI-1776 + Decitabine; first compound 0.08 µM
  relative viability: 0.368
SGI-1776 + Decitabine; first compound 0.8 µM
  relative viability: 0.412
SGI-1776 + Decitabine; first compound 2.53 µM
  relative viability: 0.49
SGI-1776 + Decitabine; first compound 8 µM
  relative viability: 0.456
Entinostat + Vorinostat; first compound 0.02 µM
  relative viability: 0.634
Entinostat + Vorinostat; first compound 0.06325 µM
  relative viability: 0.485
Entinostat + Vorinostat; first compound 0.2 µM
  relative viability: 0.476
Entinostat + Vorinostat; first compound 0.6325 µM
  relative viability: 0.376
Entinostat + Vorinostat; first compound 2 µM
  relative viability: 0.264

## CAL-12T
SGI-1776 + Vorinostat; first compound 0.08 µM
  relative viability: 0.794
SGI-1776 + Vorinostat; first compound 0.8 µM
  relative viability: 0.876
SGI-1776 + Vorinostat; first compound 2.53 µM
  relative viability: 0.723
SGI-1776 + Vorinostat; first compound 8 µM
  relative viability: 0.699
SGI-1776 + Crizotinib; first compound 0.08 µM
  relative viability: 0.682
SGI-1776 + Crizotinib; first compound 0.8 µM
  relative viability: 0.327
SGI-1776 + Crizotinib; first compound 2.53 µM
  relative viability: 0.254
SGI-1776 + Crizotinib; first compound 8 µM
  relative viability: 0.232
Entinostat + Vorinostat; first compound 0.02 µM
  relative viability: 0.606
Entinostat + Vorinostat; first compound 0.06325 µM
  relative viability: 0.892
Entinostat + Vorinostat; first compound 0.2 µM
  relative viability: 0.734
Entinostat + Vorinostat; first compound 0.6325 µM
  relative viability: 0.52
Entinostat + Vorinostat; first compound 2 µM
  relative viability: 0.423

## EBC-1
SGI-1776 + Crizotinib; first compound 0.08 µM
  relative viability: 0.21
SGI-1776 + Crizotinib; first compound 0.8 µM
  relative viability: 0.175
SGI-1776 + Crizotinib; first compound 2.53 µM
  relative viability: 0.186
SGI-1776 + Crizotinib; first compound 8 µM
  relative viability: 0.123

## NCI-H1395
SGI-1776 + Vorinostat; first compound 0.08 µM
  relative viability: 0.887
SGI-1776 + Vorinostat; first compound 0.8 µM
  relative viability: 0.755
SGI-1776 + Vorinostat; first compound 2.53 µM
  relative viability: 0.558
SGI-1776 + Vorinostat; first compound 8 µM
  relative viability: 0.47
SGI-1776 + Decitabine; first compound 0.08 µM
  relative viability: 0.721
SGI-1776 + Decitabine; first compound 0.8 µM
  relative viability: 0.708
SGI-1776 + Decitabine; first compound 2.53 µM
  relative viability: 0.58
SGI-1776 + Decitabine; first compound 8 µM
  relative viability: 0.674
Entinostat + Vorinostat; first compound 0.02 µM
  relative viability: 1.05
Entinostat + Vorinostat; first compound 0.06325 µM
  relative viability: 0.96
Entinostat + Vorinostat; first compound 0.2 µM
  relative viability: 0.829
Entinostat + Vorinostat; first compound 0.6325 µM
  relative viability: 0.65
Entinostat + Vorinostat; first compound 2 µM
  relative viability: 0.463
